In patent US4185015A, “Methoxymethyl 6-[D-2,2-dimethyl-4-(4-hydroxyphenyl)-5-oxo-1-imidazolyl]penicillanate” (priority 1977, dated 1980):
Values after ≈ are worked out from the molar mass of the structure shown. Where two headings read alike, the source gives them in different places.

Columns and labels:
[1] = tested on: Str. pneumoniae; experiment: MIC in Nutrient Broth (Table III); assay type: cell-based; details: Streptococcus pneumoniae, 10^-3 dilution of overnight broth culture, 45% AAB, 5% serum, 50% broth
Source text: (§1) Organism in Nutrient Broth
(§2) *45% AAB 5% serum 50% broth listed above,
(§3) **Dilution of overnight broth culture

[2] = tested on: Str. pyogenes; experiment: MIC in Nutrient Broth (Table III); assay type: cell-based; details: Streptococcus pyogenes, 10^-3 dilution of overnight broth culture, 45% AAB, 5% serum, 50% broth
Source text: as §1, §2, §3

[3] = tested on: Ser. marcescens; experiment: MIC in Nutrient Broth (Table III); assay type: cell-based; details: Serratia marcescens; Ser. marcescens (10^-4)
Source text: as §1, §3

[4] = tested on: S. aureus; experiment: MIC in Nutrient Broth (Table III); assay type: cell-based; details: Staphylococcus aureus; S. aureus+50% serum (10^-4)
Source text: as §1, §3

[5] = tested on: E. coli; experiment: MIC in Nutrient Broth (Table III); assay type: cell-based; details: Escherichia coli; E. coli (10^-4)
Source text: as §1, §3

[6] = tested on: Sal. enteritidis; experiment: MIC in Nutrient Broth (Table III); assay type: cell-based; details: Salmonella enterica; Sal. enteritidis (10^-4)
Source text: as §1, §3

[7] = tested on: Pr. mirabilis; experiment: MIC in Nutrient Broth (Table III); assay type: cell-based; details: Proteus mirabilis; Pr. mirabilis (10^-4)
Source text: as §1, §3

[8] = tested on: K. pneumoniae; experiment: MIC in Nutrient Broth (Table III); assay type: cell-based; details: Klebsiella pneumoniae
Source text: as §1, §3

[9] = tested on: E. coli Juhl; experiment: MIC in Nutrient Broth (Table III); assay type: cell-based; details: Escherichia coli; E. coli Juhl (10^-4)
Source text: as §1, §3

[10] = tested on: Ps. aeruginosa; experiment: MIC in Nutrient Broth (Table III); assay type: cell-based; details: Pseudomonas aeruginosa
Source text: as §1, §3

[11] = tested on: Pr. morganii; experiment: MIC in Nutrient Broth (Table III); assay type: cell-based; details: Morganella morganii
Source text: as §1, §3

[12] = tested on: Ent. cloacae; experiment: MIC in Nutrient Broth (Table III); assay type: cell-based; details: Enterobacter cloacae, Ent. cloacae (10^-4)
Source text: as §1, §3

[13] = tested on: S. aureus BX1633; experiment: MIC in Nutrient Broth (Table III); assay type: cell-based; details: Staphylococcus aureus
Source text: as §1, §3

[14] = tested on: S. aureus Smith; experiment: MIC in Nutrient Broth (Table III); assay type: cell-based; details: Staphylococcus aureus, S. aureus Smith (10^-4)
Source text: as §1, §3

[15] = tested on: S. aureus Meth.-Res.; experiment: MIC in Nutrient Broth (Table III); assay type: cell-based; details: Staphylococcus aureus
Source text: as §1, §3

[16] = in vivo; design: species or system mice; details: mouse, po, 50 mg/kg
[17] = tested on: S. aureus Smith; experiment: MIC against various organisms (Table I); assay type: cell-based; details: Staphylococcus aureus, read-out: minimum inhibitory concentration
[18] = tested on: Pr. mirabilis; experiment: MIC against various organisms (Table I); assay type: cell-based; details: Proteus mirabilis, read-out: minimum inhibitory concentration
[19] = tested on: E. coli Juhl; experiment: MIC against various organisms (Table I); assay type: cell-based; details: Escherichia coli, read-out: minimum inhibitory concentration
[20] = tested on: S. aureus; experiment: MIC against various organisms (Table I); assay type: cell-based; details: Staphylococcus aureus, third of three lines, read-out: minimum inhibitory concentration
[21] = tested on: Sal. enteritidis; experiment: MIC against various organisms (Table I); assay type: cell-based; details: Salmonella enterica, read-out: minimum inhibitory concentration
[22] = tested on: Ser. marcescens; experiment: MIC against various organisms (Table I); assay type: cell-based; details: Serratia marcescens, read-out: minimum inhibitory concentration
[23] = tested on: Ps. aeruginosa; experiment: MIC against various organisms (Table I); assay type: cell-based; details: Pseudomonas aeruginosa; Ps. aeruginosa; read-out: minimum inhibitory concentration
[24] = tested on: Str. pyogenes; experiment: MIC against various organisms (Table I); assay type: cell-based; details: Streptococcus pyogenes; Str. pyogenes + 5% serum; read-out: minimum inhibitory concentration
[25] = tested on: E. coli; experiment: MIC against various organisms (Table I); assay type: cell-based; details: Escherichia coli, read-out: minimum inhibitory concentration
[26] = Oral absorption in man, BL-P1780 Study 101; details: in vivo, po
Protocol: (§4) Only the latter are biologically active per se. Also, both original ester and parent penicillin were measured.
Three formulations were each administered once orally to six (6) healthy adult male subjects in BL-P1780 Study 101 as follows:
A. BL-P1780, 500 mg. (of amoxicillin-equivalent activity) as two 250 mg. buffered tablets.
B. BL-P1780, 500 mg. (an amoxicillin-equivalent activity) as two 250 mg. buffered tablets with 3.5 g. sodium bicarbonate being taken five minutes prior to the adminstration of BL-P1780.
C. Amoxicillin, 500 mg. as two 250 mg. capsules.
1. To investigate the human safety and tolerance of single 500 mg. doses of BL-P1780.
2. To determine the effect of intragastric buffering with sodium bicarbonate on the absorption of BL-P1780.
3. To compare amoxicillin plasma and saliva concentrations and urinary excretion between BL-P1780 and amoxicillin.

[27] = tested on: K. pneumoniae; experiment: MIC against various organisms (Table I); assay type: cell-based; details: Klebsiella pneumoniae, K. pneumoniae, read-out: minimum inhibitory concentration
[28] = tested on: D. pneumoniae; experiment: MIC against various organisms (Table I); assay type: cell-based; details: Streptococcus pneumoniae; D. pneumoniae + 5% serum; read-out: minimum inhibitory concentration
[29] = in vivo
Protocol: as §4

[30] = tested on: S. aureus BX1633; experiment: MIC against various organisms (Table I); assay type: cell-based; details: Staphylococcus aureus, read-out: minimum inhibitory concentration
[31] = tested on: Pr. morganii; experiment: MIC against various organisms (Table I); assay type: cell-based; details: Morganella morganii; Pr. morganii; read-out: minimum inhibitory concentration
[32] = K. pneumoniae (10^-4), first of two lines, read-out: MIC
[33] = second of three lines, read-out: MIC
[34] = third of three lines, read-out: MIC
[35] = BX1633, S. aureus BX1633 (10^-3), read-out: MIC
[36] = S. aureus Meth.-Res. (10^-3), 37° C., read-out: MIC
[37] = S. aureus Meth.-Res. (10^-3), 28° C., read-out: MIC

`CC1(C)S[C@@H]2[C@H](NC(=O)[C@H](N)c3ccccc3)C(=O)N2[C@H]1C(=O)O` [Sodium Ampicillin] gave an MIC [1] of 0.016 µg/mL, an MIC [2] of 0.008 µg/mL and an MIC [3] of 32 µg/mL. The MIC [4] was 0.13 µg/mL, the MIC [5] was 16 µg/mL and the MIC [6] was 0.13 µg/mL. The MIC [7] was 0.25 µg/mL, the MIC [8] was 125 µg/mL and the MIC [8, 32] was 0.5 µg/mL. The MIC [9] was 2 µg/mL, the MIC [10] was > 125 µg/mL and the MIC [11] was > 125 µg/mL. For the same compound, the MIC ([12]; first of three lines) was > 125 µg/mL, the MIC [12, 33] was 32 µg/mL and the MIC [12, 34] was 63 µg/mL. The MIC ([13]; BX1633) was > 125 µg/mL, the MIC [13, 35] was 32 µg/mL and the MIC [14] was 0.06 µg/mL. For the same compound, the MIC [15] was > 125 µg/mL and the MIC [15, 36] was 32 µg/mL.

`CC1(C)S[C@@H]2[C@H](N3C(=O)[C@@H](c4ccccc4)NC3(C)C)C(=O)N2[C@H]1C(=O)O` [Compound 3, D-6-(2,2-dimethyl-5-oxo-4-phenyl-1-imidazolidinyl)penicillanic acid] gave a concentration at 0.5 h [16] of 2000 ng/mL, a concentration at 2 h [16] of 1100 ng/mL and a concentration at 3.5 h [16] of 500 ng/mL.

Compound `COCOC(=O)[C@@H]1N2C(=O)[C@@H](N3C(=O)[C@@H](c4ccc(O)cc4)NC3(C)C)[C@H]2SC1(C)C` [Example 8, methoxymethyl 6-[D-(-)-2,2-dimethyl-4-(4-hydroxyphenyl)-5-oxo-1-imidazolyl]-penicillanate] has an MIC ([17]; S. aureus Smith + 50% serum) of 0.06 µg/mL, an MIC ([17]; S. aureus Smith) of 0.06 µg/mL (≈ 0.133 µM) and an MIC [18] of 0.16 µg/mL (≈ 0.356 µM). The MIC [19] was 1 µg/mL (≈ 2.22 µM), the MIC [20] was > 125 µg/mL and the MIC [21] was 0.13 µg/mL (≈ 0.289 µM). The MIC [22] was 32 µg/mL (≈ 71.2 µM), the MIC [23] was > 125 µg/mL and the MIC [24] was 0.004 µg/mL. For the same compound, the MIC [25] was 32 µg/mL (≈ 71.2 µM), the “need of intragastric buffering for bioavailability or tissue distribution” value [26] was “not necessary” and the MIC ([27]; first of two lines) was 0.16 µg/mL (≈ 0.356 µM). For the same compound, the MIC ([27]; second of two lines) was > 125 µg/mL, the MIC [1] was 0.008 µg/mL (≈ 0.0178 µM) and the MIC [2] was 0.008 µg/mL (≈ 0.0178 µM). For the same compound, the concentration at 0.5 h [16] was 4800 ng/mL, the concentration at 1 h [16] was 3500 ng/mL and the concentration at 2 h [16] was 1700 ng/mL. The concentration at 3.5 h [16] was 700 ng/mL, the MIC [28] was 0.004 µg/mL and the MIC [3] was > 125 µg/mL. It also gave an MIC [5] of 32 µg/mL (≈ 71.2 µM), an MIC [6] of 1 µg/mL (≈ 2.22 µM) and an MIC [7] of 0.25 µg/mL (≈ 0.556 µM). The MIC [8, 32] was 0.13 µg/mL (≈ 0.289 µM), the MIC ([8]; K. pneumoniae (10^-4), second of two lines, read-out: MIC) was > 125 µg/mL and the MIC [9] was 1 µg/mL (≈ 2.22 µM). For the same compound, the MIC ([10]; Ps. aeruginosa (10^-4), read-out: MIC) was > 125 µg/mL, the MIC ([11]; Pr. morganii (10^-4), read-out: MIC) was > 125 µg/mL and the MIC ([12]; first of three lines, read-out: MIC) was 125 µg/mL (≈ 278 µM). For the same compound, the MIC [12, 33] was 125 µg/mL (≈ 278 µM), the MIC [12, 34] was 63 µg/mL (≈ 140 µM) and the MIC ([13]; BX1633, S. aureus BX1633 (10^-2), read-out: MIC) was > 125 µg/mL. The MIC [13, 35] was 16 µg/mL (≈ 35.6 µM), the MIC [14] was 0.13 µg/mL (≈ 0.289 µM) and the MIC [15, 37] was 63 µg/mL (≈ 140 µM). The MIC [15, 36] was 125 µg/mL (≈ 278 µM), the “tissue distribution of amoxicillin from BL-P1780 over that of ampicillin, amoxicillin or ampicillin from sarpicillin” value [29] was “markedly improved tissue distribution” and the “hydrolysis of the ester” value ([29]; po) was “hydrolyze eventually to their parent penicillins”. For the same compound, the MIC ([30]; BX1633, S. aureus BX1633, first of two lines) was 125 µg/mL (≈ 278 µM), the MIC ([30]; BX1633, S. aureus BX1633, second of two lines) was > 125 µg/mL and the MIC [31] was 32 µg/mL (≈ 71.2 µM).

In the case of `CC1(C)S[C@@H]2[C@H](NC(=O)[C@H](N)c3ccc(O)cc3)C(=O)N2[C@H]1C(=O)O` [Amoxicillin Trihydrate], the MIC [1] is reported as 0.016 µg/mL, the MIC [2] is reported as 0.016 µg/mL and the MIC [3] is reported as 32 µg/mL. The MIC [5] was 16 µg/mL, the MIC [6] was 0.25 µg/mL and the MIC [7] was 0.25 µg/mL. The MIC [8] was > 125 µg/mL, the MIC [8, 32] was 0.25 µg/mL and the MIC [9] was 1 µg/mL. For the same compound, the MIC [10] was > 125 µg/mL, the MIC [11] was > 125 µg/mL and the MIC ([12]; first of three lines) was > 125 µg/mL. The MIC [12, 33] was 63 µg/mL, the MIC ([12]; third of three lines) was 125 µg/mL and the MIC ([13]; BX1633) was > 125 µg/mL. For the same compound, the MIC [13, 35] was 16 µg/mL, the MIC [14] was 0.13 µg/mL and the MIC [15, 37] was 32 µg/mL. The MIC [15, 36] was 63 µg/mL.
